In ChEMBL document CHEMBL4630906, “Data for DCP probe BAY-3153” (2021):
Active and inactive are the calls of the source. The calls are words filed in the database; no cut-off is given here.

Assays:
[1] = biological target: 5-hydroxytryptamine receptor 6 (Homo sapiens) (UniProt P50406); conditions: Compound concentration 10.0 uM
[2] = biological target: T1, Sigma non-opioid intracellular receptor 1 (Homo sapiens, UniProt Q99720); experiment: GPCRScan assay: inhibition of Sigma 1; design: radioligand conc. used [nm] 4.0 – 5.0, parental cells HEKT
T1 sequence (Q99720 whole entry): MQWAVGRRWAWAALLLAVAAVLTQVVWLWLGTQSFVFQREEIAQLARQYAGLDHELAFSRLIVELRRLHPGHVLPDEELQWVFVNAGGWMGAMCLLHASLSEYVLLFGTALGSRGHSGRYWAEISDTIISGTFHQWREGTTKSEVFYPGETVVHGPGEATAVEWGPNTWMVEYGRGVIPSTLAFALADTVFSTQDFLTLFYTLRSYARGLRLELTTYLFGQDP

[3] = biological target: Histamine H2 receptor (Homo sapiens) (UniProt P25021); conditions: Compound concentration 10.0 uM
[4] = biological target: Beta-3 adrenergic receptor (Homo sapiens) (UniProt P13945); conditions: Compound concentration 10.0 uM
[5] = biological target: 5-hydroxytryptamine receptor 2C (Homo sapiens) (UniProt P28335); conditions: Compound concentration 10.0 uM
Chain of 5-hydroxytryptamine receptor 2C (Homo sapiens) (P28335 whole entry): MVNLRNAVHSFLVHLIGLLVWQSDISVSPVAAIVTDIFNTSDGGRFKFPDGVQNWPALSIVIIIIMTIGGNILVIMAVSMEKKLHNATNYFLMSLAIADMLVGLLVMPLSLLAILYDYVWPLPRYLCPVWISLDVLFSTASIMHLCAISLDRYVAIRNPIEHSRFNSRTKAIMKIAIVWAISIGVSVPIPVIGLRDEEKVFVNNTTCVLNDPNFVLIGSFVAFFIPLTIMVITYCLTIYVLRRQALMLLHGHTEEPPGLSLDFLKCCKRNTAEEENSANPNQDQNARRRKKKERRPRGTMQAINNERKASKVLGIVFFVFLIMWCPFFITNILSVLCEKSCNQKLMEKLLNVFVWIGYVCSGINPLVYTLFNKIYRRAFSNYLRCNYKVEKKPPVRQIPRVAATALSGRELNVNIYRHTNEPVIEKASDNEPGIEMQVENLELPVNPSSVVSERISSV

[6] = biological target: T2, GABA-A receptor; anion channel (Rattus norvegicus) (UniProt O09028+P15431+P18506+P18508+P19969+P20236+P23574+P23576+P28471+P28473+P30191+P62813+P63079+P63138+Q91ZM7+Q9ES14); conditions: Compound concentration 10.0 uM
[7] = biological target: 5-hydroxytryptamine receptor 3A (Homo sapiens) (UniProt P46098); conditions: Compound concentration 10.0 uM
Chain of 5-hydroxytryptamine receptor 3A (Homo sapiens) (P46098 whole entry): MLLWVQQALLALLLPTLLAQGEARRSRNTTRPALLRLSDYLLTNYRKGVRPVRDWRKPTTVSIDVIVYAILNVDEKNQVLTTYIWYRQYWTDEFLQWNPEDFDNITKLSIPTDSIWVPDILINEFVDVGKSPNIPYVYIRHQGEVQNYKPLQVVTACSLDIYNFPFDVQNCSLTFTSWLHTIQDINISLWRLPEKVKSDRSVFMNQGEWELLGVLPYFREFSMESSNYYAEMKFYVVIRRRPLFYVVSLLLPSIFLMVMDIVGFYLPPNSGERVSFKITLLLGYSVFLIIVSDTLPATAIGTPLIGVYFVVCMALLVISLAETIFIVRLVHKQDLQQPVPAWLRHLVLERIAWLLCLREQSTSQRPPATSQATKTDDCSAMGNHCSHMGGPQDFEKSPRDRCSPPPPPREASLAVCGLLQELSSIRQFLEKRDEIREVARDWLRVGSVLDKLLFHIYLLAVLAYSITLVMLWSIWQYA

[8] = biological target: Histamine H1 receptor (Homo sapiens) (UniProt P35367); conditions: Compound concentration 10.0 uM
[9] = biological target: 5-hydroxytryptamine receptor 2A (Homo sapiens) (UniProt P28223); conditions: Compound concentration 10.0 uM
[10] = biological target: D(4) dopamine receptor (Homo sapiens) (UniProt P21917); conditions: Compound concentration 10.0 uM
Chain of D(4) dopamine receptor (Homo sapiens) (P21917 whole entry): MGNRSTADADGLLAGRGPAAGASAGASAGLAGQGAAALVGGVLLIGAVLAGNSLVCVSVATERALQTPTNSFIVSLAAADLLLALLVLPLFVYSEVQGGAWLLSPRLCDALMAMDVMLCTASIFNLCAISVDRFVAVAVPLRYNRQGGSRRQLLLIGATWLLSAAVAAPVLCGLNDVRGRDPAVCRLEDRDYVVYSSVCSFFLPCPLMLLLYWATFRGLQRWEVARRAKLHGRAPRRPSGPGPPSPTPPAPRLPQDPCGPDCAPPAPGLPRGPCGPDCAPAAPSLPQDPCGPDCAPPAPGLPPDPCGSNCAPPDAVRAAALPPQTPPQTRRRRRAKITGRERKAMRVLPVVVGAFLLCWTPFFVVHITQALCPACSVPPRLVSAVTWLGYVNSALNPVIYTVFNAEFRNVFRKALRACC

[11] = biological target: 5-hydroxytryptamine receptor 1D (Homo sapiens) (UniProt P28221); conditions: Compound concentration 10.0 uM
[12] = biological target: D(4) dopamine receptor (Homo sapiens, UniProt P21917); experiment: GPCRScan assay: inhibition of D4; design: radioligand conc. used [nm] 0.6 – 1.7, parental cells Stable HEK
Chain of D(4) dopamine receptor (P21917 whole entry): as above

[13] = biological target: T3, Sodium-dependent serotonin transporter (Homo sapiens, UniProt P31645); experiment: GPCRScan assay: inhibition of SERT; design: radioligand conc. used [nm] 1.5 – 2.0, parental cells stable HEK
[14] = biological target: Histamine H4 receptor (Homo sapiens) (UniProt Q9H3N8); conditions: Compound concentration 10.0 uM
[15] = biological target: T4, Sigma intracellular receptor 2 (Homo sapiens, UniProt Q5BJF2); conditions: Compound concentration 10.0 uM
T4 sequence (Q5BJF2 whole entry): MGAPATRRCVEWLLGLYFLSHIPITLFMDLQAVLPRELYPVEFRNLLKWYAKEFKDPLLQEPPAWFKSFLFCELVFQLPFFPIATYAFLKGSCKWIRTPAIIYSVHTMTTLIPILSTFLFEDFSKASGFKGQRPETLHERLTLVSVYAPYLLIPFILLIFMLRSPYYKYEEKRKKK

[16] = biological target: D(3) dopamine receptor (Homo sapiens) (UniProt P35462); conditions: Compound concentration 10.0 uM
[17] = biological target: 5-hydroxytryptamine receptor 2B (Homo sapiens) (UniProt P41595); conditions: Compound concentration 10.0 uM
[18] = biological target: Sodium-dependent noradrenaline transporter (Homo sapiens) (UniProt P23975); conditions: Compound concentration 10.0 uM
Chain of Sodium-dependent noradrenaline transporter (Homo sapiens) (P23975 whole entry): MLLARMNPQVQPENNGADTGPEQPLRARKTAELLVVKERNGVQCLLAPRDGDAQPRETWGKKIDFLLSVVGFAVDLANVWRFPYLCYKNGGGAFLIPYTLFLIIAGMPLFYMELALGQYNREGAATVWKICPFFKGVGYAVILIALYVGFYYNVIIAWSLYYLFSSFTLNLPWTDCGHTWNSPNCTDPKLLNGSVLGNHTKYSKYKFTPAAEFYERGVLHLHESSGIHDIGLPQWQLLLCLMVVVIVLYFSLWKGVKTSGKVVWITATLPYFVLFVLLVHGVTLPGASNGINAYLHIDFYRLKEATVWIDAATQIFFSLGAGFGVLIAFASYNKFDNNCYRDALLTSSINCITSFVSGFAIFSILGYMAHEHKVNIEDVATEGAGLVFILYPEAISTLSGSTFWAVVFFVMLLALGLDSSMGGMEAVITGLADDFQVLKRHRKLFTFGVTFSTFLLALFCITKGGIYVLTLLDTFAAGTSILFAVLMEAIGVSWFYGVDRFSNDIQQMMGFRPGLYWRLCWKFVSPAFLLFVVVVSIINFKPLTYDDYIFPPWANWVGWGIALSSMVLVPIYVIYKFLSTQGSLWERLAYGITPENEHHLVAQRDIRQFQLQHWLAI

[19] = species: Rattus norvegicus; conditions: Compound concentration 10.0 uM
[20] = biological target: Muscarinic acetylcholine receptor M4 (Homo sapiens) (UniProt P08173); conditions: Compound concentration 10.0 uM
[21] = biological target: Muscarinic acetylcholine receptor M5 (Homo sapiens) (UniProt P08912); conditions: Compound concentration 10.0 uM
[22] = biological target: Alpha-1D adrenergic receptor (Homo sapiens) (UniProt P25100); conditions: Compound concentration 10.0 uM
[23] = biological target: D(1B) dopamine receptor (Homo sapiens) (UniProt P21918); conditions: Compound concentration 10.0 uM
[24] = biological target: Alpha-2B adrenergic receptor (Homo sapiens, UniProt P18089); experiment: GPCRScan assay: inhibition of Alpha2B; design: radioligand conc. used [nm] 1.5 – 2.0, parental cells HEKT
[25] = biological target: Alpha-1A adrenergic receptor (Homo sapiens) (UniProt P35348); conditions: Compound concentration 10.0 uM
[26] = biological target: T5, Kappa-type opioid receptor (Homo sapiens, UniProt P41145); conditions: Compound concentration 10.0 uM
T5 sequence (P41145 whole entry): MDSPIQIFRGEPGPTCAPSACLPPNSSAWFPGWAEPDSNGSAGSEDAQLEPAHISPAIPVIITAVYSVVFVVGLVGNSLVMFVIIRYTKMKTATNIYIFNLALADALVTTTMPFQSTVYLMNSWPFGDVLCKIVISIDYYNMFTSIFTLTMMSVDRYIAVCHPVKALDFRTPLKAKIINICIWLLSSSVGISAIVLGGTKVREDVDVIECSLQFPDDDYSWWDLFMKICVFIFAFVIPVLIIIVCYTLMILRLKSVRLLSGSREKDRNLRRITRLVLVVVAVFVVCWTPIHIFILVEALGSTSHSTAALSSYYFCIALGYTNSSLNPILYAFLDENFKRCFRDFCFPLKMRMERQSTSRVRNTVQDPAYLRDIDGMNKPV

[27] = biological target: Alpha-1B adrenergic receptor (Homo sapiens) (UniProt P35368); conditions: Compound concentration 10.0 uM
[28] = biological target: T3, Sodium-dependent serotonin transporter; conditions: Compound concentration 10.0 uM
[29] = biological target: Alpha-2C adrenergic receptor (Homo sapiens) (UniProt P18825); conditions: Compound concentration 10.0 uM
[30] = biological target: T2, GABA-A receptor; anion channel (Rattus norvegicus); conditions: Compound concentration 10.0 uM; remark: listed apart in the source
[31] = biological target: T4, Sigma intracellular receptor 2; experiment: GPCRScan assay: inhibition of Sigma 2; design: radioligand conc. used [nm] 5.0, parental cells HEKT
[32] = biological target: Muscarinic acetylcholine receptor M2 (Homo sapiens) (UniProt P08172); conditions: Compound concentration 10.0 uM
Chain of Muscarinic acetylcholine receptor M2 (Homo sapiens) (P08172 whole entry): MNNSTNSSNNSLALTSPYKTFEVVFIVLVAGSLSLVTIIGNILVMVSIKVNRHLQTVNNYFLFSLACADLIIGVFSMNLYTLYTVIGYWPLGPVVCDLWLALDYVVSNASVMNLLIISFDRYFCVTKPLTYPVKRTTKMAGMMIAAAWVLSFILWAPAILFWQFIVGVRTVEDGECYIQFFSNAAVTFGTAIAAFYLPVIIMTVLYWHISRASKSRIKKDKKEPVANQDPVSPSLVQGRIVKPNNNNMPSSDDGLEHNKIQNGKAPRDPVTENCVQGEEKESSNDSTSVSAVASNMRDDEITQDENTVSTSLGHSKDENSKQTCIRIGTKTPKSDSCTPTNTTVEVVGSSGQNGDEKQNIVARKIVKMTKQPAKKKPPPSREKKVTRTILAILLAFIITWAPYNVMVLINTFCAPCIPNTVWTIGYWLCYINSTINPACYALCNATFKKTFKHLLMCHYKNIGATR

[33] = biological target: T1, Sigma non-opioid intracellular receptor 1; conditions: Compound concentration 10.0 uM
[34] = biological target: Beta-2 adrenergic receptor (Homo sapiens) (UniProt P07550); conditions: Compound concentration 10.0 uM
Chain of Beta-2 adrenergic receptor (Homo sapiens) (P07550 whole entry, looked up): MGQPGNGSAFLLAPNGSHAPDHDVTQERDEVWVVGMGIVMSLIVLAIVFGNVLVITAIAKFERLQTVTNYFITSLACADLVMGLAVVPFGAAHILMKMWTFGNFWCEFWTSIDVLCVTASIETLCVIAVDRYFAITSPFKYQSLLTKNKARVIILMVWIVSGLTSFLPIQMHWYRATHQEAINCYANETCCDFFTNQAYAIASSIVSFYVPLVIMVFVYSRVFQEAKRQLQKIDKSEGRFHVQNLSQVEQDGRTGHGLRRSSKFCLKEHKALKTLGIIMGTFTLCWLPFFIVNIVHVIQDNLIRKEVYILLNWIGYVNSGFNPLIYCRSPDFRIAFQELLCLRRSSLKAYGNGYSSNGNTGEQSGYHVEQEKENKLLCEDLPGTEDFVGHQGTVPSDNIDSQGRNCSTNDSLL

[35] = biological target: 5-hydroxytryptamine receptor 1B (Homo sapiens) (UniProt P28222); conditions: Compound concentration 10.0 uM
[36] = biological target: Mu-type opioid receptor (Homo sapiens) (UniProt P35372); conditions: Compound concentration 10.0 uM
[37] = biological target: Alpha-2A adrenergic receptor (Homo sapiens) (UniProt P08913); conditions: Compound concentration 10.0 uM
[38] = biological target: Histamine H3 receptor (Homo sapiens) (UniProt Q9Y5N1); conditions: Compound concentration 10.0 uM
[39] = biological target: C-C chemokine receptor type 1 (Homo sapiens, UniProt P32246); experiment: CCR1 cellular Ca2+-flux assay; assay type: functional
[40] = biological target: Muscarinic acetylcholine receptor M1 (Homo sapiens) (UniProt P11229); conditions: Compound concentration 10.0 uM
Chain of Muscarinic acetylcholine receptor M1 (Homo sapiens) (P11229 whole entry): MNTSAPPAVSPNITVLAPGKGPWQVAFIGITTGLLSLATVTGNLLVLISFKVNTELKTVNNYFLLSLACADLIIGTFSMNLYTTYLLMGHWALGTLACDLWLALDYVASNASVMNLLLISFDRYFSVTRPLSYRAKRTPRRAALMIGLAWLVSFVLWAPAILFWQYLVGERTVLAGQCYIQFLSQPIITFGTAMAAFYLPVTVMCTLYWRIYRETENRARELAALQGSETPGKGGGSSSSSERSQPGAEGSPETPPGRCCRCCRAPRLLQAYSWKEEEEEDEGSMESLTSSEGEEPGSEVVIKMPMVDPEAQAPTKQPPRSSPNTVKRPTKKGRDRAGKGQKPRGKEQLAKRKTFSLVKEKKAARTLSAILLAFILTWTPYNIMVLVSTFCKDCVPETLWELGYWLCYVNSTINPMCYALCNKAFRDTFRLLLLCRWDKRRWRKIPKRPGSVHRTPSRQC

[41] = biological target: Muscarinic acetylcholine receptor M3 (Homo sapiens) (UniProt P20309); conditions: Compound concentration 10.0 uM
[42] = biological target: Beta-1 adrenergic receptor (Homo sapiens) (UniProt P08588); conditions: Compound concentration 10.0 uM
[43] = biological target: 5-hydroxytryptamine receptor 5A (Homo sapiens) (UniProt P47898); conditions: Compound concentration 10.0 uM
Chain of 5-hydroxytryptamine receptor 5A (Homo sapiens) (P47898 whole entry): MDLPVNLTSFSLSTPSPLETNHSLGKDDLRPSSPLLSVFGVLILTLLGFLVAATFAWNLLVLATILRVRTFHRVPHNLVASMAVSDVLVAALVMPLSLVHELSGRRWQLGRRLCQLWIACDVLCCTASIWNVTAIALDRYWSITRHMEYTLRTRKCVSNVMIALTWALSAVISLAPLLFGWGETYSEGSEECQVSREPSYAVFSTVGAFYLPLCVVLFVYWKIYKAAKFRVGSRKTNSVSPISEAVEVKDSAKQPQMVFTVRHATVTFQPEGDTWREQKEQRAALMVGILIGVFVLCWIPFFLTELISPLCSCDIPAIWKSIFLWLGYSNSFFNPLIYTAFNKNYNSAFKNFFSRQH

[44] = biological target: T5, Kappa-type opioid receptor; experiment: GPCRScan assay: inhibition of KOR; design: radioligand conc. used [nm] 0.6 – 1.2, parental cells stable HEK
[45] = biological target: Delta-type opioid receptor (Homo sapiens) (UniProt P41143); conditions: Compound concentration 10.0 uM
[46] = biological target: 5-hydroxytryptamine receptor 1A (Homo sapiens) (UniProt P08908); conditions: Compound concentration 10.0 uM
[47] = biological target: D(2) dopamine receptor (Homo sapiens) (UniProt P14416); conditions: Compound concentration 10.0 uM
[48] = GPCRScan assay: inhibition of GABA/PBR; design: species or system Rattus norvegicus; radioligand conc. used [nm] 0.3 – 2.0, parental cells brain tissue
[49] = biological target: D(1A) dopamine receptor (Homo sapiens) (UniProt P21728); conditions: Compound concentration 10.0 uM
[50] = biological target: Sodium-dependent dopamine transporter (Homo sapiens) (UniProt Q01959); conditions: Compound concentration 10.0 uM

Chain of 5-hydroxytryptamine receptor 6 (Homo sapiens) (P50406 whole entry): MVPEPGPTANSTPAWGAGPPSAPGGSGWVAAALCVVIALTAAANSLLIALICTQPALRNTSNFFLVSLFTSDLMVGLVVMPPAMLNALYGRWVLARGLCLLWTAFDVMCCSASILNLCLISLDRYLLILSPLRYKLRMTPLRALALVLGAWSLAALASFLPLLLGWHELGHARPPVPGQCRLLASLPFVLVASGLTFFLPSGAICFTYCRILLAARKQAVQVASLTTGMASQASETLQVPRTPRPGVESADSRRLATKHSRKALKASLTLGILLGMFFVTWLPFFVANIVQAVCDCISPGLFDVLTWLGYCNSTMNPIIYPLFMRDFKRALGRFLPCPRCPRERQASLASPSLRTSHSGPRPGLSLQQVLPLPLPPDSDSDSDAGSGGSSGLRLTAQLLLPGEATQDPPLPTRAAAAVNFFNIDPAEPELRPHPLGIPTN

O=C([C@H]1C[C@H](O)CN1c1ccc(Cl)cc1)N1CC2COCC(C1)N2Cc1ccc(Cl)cc1 [BAY-173]
inhibition [1]: 5.38%
Ki [2]: 8250 nM
inhibition [3]: 8.13%
inhibition [4]: -9.84%
inhibition [5]: -2.02%
inhibition [6]: 0.65%
inhibition [7]: -7.03%
inhibition [8]: 14.3%
inhibition [9]: 7.31%
inhibition [10]: 51.5%
inhibition [11]: -7.5%
Ki [12]: 10000 nM
Ki [13]: 1460 nM
inhibition [14]: -3.31%
inhibition [15]: 76.5%
inhibition [16]: 2.75%
inhibition [17]: 14.8%
inhibition [18]: -4.52%
inhibition [19]: -8.33%
inhibition [20]: -6.12%
inhibition [21]: -1.65%
inhibition [22]: -7.34%
inhibition [23]: 6.84%
Ki [24]: 10000 nM
inhibition [25]: 7.02%
inhibition [26]: 18.7%
inhibition [27]: 0.94%
inhibition [28]: 70.3%
inhibition [29]: 14.4%
inhibition [30]: 20%
Ki [31]: 2170 nM
inhibition [32]: 1.89%
inhibition [33]: 69.5%
inhibition [34]: -7.55%
inhibition [35]: -6.45%
inhibition [36]: 4.45%
inhibition [37]: 11.3%
inhibition [38]: 9.39%
IC50 [39]: 1200 nM (not active)
inhibition [40]: -3.85%
inhibition [41]: 24.1%
inhibition [42]: 6.12%
inhibition [43]: -1.82%

CCOc1cc(N2C3COCC2CN(C(=O)[C@H]2C[C@H](O)CN2c2ccc(Cl)cc2)C3)ccc1Cl [BAY-3153]
inhibition [1]: -8.16%
Ki [2]: 1830 nM
inhibition [3]: 27.7%
inhibition [4]: -5.38%
inhibition [5]: 4.08%
inhibition [6]: -6.17%
inhibition [7]: -1.97%
inhibition [8]: 11.2%
Ki [44]: 3010 nM
inhibition [9]: 6.74%
inhibition [10]: 15.5%
inhibition [45]: 10.3%
inhibition [11]: -2.08%
inhibition [15]: 83.6%
inhibition [46]: -9.03%
inhibition [16]: 1.58%
inhibition [17]: 10.5%
inhibition [18]: 1.24%
inhibition [19]: 54.2%
inhibition [20]: -3.29%
inhibition [21]: -4.29%
inhibition [22]: 7.09%
inhibition [23]: 2.54%
inhibition [47]: 7.26%
inhibition [25]: 17%
inhibition [26]: 53.6%
inhibition [28]: 33.4%
inhibition [29]: 2.17%
inhibition [30]: 18.6%
Ki [31]: 1480 nM
inhibition [32]: 8.64%
inhibition [33]: 85%
inhibition [34]: -4.63%
Ki [48]: 1810 nM
pKi [48]: 5.74
inhibition [35]: -2.86%
inhibition [36]: 5.82%
inhibition [49]: 40.3%
inhibition [50]: 3.92%
inhibition [38]: 17.3%
IC50 [39]: 3 nM (active)
inhibition [40]: -5.67%
inhibition [41]: 8.61%
inhibition [43]: 1.7%
